This is an account of results in patent US9567322B2, “Substituted tetrahydropyrans and method of use” (AbbVie S.á.r.l., priority 2014, dated 2017).

Usually EC50 stands for the concentration that produces a half-maximal response. A high value points to a need for much substance.

This experiment addresses T1, F508delCFTR (Homo sapiens, UniProt P13569, DEL508-508).
T1 construct: expressed in transfected cells; host or cells: CFBE41o- (CFBE41o-F508delCFTR-HRP), doxycycline-inducible
As to the kind of experiment: Cell Surface Expression-Horse Radish Peroxidase (CSE-HRP) assay. Type of experiment: cell-based. To be noted: CFBE41o-F508delCFTR-HRP cells; for EC50: cell surface expression, luminescence readout, 18-24 hours at 33° C., highest concentration tested 20 μM, 8-point curve; for Maximum % activity: maximum at any tested concentration, normalized to on-plate positive control (3 μM) and DMSO. An excerpt:
Cell Surface Expression-Horse Radish Peroxidase (CSE-HRP) Assay:
A cellular assay for measuring the F508delCFTR cell surface expression after correction with test compounds was developed in human lung derived epithelial cell line (CFBE41o-) (Veit G et al, (2012) Mol Biol Cell. 23(21): 4188-4202). This was achieved by expressing the F508delCFTR mutation along with a horseradish peroxidase (HRP) in the fourth exofacial loop and then measuring the HRP activity using luminescence readout from these cells, CFBE41o-F508delCFTR-HRP, that were incubated overnight with the test corrector compounds. Briefly, for this primary assay, the CFBE41o-F508delCFTR-HRP cells were plated in 384-well plates (Greiner Bio-one; Cat 781080) at 4,000 cells/well along with 0.5 μg/mL doxycycline to induce the F508delCFTR-HRP expression and further incubated at 37° C., 5% CO2 for 72 hours. The test compounds were then added at the required concentrations and further incubated for 18-24 hours at 33° C. The highest concentration tested was 20 μM with an 8-point concentration response curve using a 3-fold dilution. Three replicate plates were run to determine one EC50. All plates contained negative controls (dimethyl sulfoxide, DMSO) and positive controls (3 μM of 3-[(2R,4R)-4-({[1-(2,2-difluoro-1,3-benzodioxol-5-yl)cyclopropyl]carbonyl}amino)-7-methoxy-3,4-dihydro-2H-chromen-2-yl]benzoic acid) as well as on-plate concentration response of the positive control. Post incubation, the plates were washed 5× times with Dulbecco's phosphate buffered saline (DPBS), followed by the addition of the HRP substrate, luminol (50 μL), and measuring the HRP activity using luminescence readout on EnVision® Multilabel Plate Reader (Perkin Elmer; product number 2104-0010). The raw counts from the experiment are analyzed using Accelrys® Assay Explorer v3.3.
Z′ greater than 0.5 was used as passing quality control criteria for the plates.
The Z′ is defined as: 1−[3*SDPositive Control+3*SDNegative Control/Absolute(MeanPositive Control−MeanNegative Control)],
wherein “SD” is standard deviation.
The % activity measured at each of the 8 test concentrations of the test compound was normalized to the on-plate positive control using the following formula: % activity=[(test compound response−DMSO response)/(positive control response−DMSO response)]*100
The maximum % activity achieved for the test compound at any tested concentration is presented in Table 1 along with the EC50 calculated using the following general sigmoidal curve with variable Hill slope equation (described as Model 42 in the Accelrys® Assay Explorer v3.3 software): y=(a−d)/(1+(x/c)^b)+d General sigmoidal curve with concentration, response, top, bottom, EC50 and Hill slope.
This model describes a sigmoidal curve with an adjustable baseline, a. The equation can be used to fit curves where response is either increasing or decreasing with respect to the independent variable, “x”.
“x” is a concentration of drug under test.
“a” is the maximum response, and “d” is the minimum response
“c” is the inflection point (EC50) for the curve. That is, “y” is halfway between the lower and upper asymptotes when x=c.
“b” is the slope-factor or Hill coefficient. The sign of b is positive when the response increases with increasing dose and is negative when the response decreases with increasing dose (inhibition).

T1 sequence (P13569 with tags, fused parts or gaps DEL508-508): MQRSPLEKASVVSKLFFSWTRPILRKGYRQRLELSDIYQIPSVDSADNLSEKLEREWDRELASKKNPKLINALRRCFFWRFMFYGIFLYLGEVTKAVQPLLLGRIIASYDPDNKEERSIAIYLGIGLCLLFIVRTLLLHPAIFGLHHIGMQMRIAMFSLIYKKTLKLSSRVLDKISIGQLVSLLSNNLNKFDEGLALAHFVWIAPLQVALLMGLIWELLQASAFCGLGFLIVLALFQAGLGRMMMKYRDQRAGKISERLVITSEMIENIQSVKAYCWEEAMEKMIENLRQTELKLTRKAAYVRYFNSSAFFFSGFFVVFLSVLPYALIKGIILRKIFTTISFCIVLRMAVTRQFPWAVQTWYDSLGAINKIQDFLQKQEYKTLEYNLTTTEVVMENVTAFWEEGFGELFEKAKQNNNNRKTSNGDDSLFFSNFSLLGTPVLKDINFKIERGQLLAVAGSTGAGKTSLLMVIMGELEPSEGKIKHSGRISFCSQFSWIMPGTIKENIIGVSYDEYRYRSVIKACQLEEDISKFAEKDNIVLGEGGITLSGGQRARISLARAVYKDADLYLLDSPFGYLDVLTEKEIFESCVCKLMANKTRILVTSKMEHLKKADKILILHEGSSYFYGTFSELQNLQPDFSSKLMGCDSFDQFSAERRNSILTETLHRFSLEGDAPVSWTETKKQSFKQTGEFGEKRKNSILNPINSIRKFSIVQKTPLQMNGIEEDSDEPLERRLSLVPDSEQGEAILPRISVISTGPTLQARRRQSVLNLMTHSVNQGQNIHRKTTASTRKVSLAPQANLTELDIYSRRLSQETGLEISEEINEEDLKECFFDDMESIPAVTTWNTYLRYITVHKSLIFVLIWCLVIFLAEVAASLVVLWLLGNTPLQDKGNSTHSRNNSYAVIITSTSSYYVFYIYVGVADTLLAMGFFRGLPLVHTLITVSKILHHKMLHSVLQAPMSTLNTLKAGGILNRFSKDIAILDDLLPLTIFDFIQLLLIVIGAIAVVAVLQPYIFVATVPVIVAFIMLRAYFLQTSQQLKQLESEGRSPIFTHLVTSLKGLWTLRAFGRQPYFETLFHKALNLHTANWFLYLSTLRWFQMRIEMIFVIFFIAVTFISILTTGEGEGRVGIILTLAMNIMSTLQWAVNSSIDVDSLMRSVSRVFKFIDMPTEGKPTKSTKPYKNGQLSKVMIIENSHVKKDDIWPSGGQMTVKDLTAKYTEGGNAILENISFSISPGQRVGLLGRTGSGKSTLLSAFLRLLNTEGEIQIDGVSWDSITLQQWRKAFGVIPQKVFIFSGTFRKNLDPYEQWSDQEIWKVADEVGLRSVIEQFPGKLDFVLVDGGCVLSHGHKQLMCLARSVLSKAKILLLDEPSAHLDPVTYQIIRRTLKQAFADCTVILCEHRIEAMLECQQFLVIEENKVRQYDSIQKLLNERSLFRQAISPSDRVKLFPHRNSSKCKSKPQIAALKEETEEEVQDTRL

With `COC(=O)c1ccc([C@H]2C[C@@H](NC(=O)C3(c4ccc5c(c4)OC(F)(F)O5)CC3)CC(C)(C)O2)cc1` (racemic) [Example 34, methyl rac-4-[(2R,4R)-4-({[1-(2,2-difluoro-1,3-benzodioxol-5-yl)cyclopropyl]carbonyl}amino)-6,6-dimethyltetrahydro-2H-pyran-2-yl]benzoate], a half-maximal response (EC50) required 1610 nM and the Maximum % activity is on record as 105%.
For `CC1(C)C[C@H](NC(=O)C2(c3ccc4c(c3)OC(F)(F)O4)CC2)C[C@H](c2ccc(C(=O)O)cc2)O1` (racemic) [Example 35, rac-4-[(2R,4R)-4-({[1-(2,2-difluoro-1,3-benzodioxol-5-yl)cyclopropyl]carbonyl}amino)-6,6-dimethyltetrahydro-2H-pyran-2-yl]benzoic acid], a half-maximal response (EC50) required 2870 nM and the Maximum % activity was 89%.
Consider `COC(=O)c1ccc([C@H]2C[C@@H](NC(=O)C3(c4ccc5c(c4)OC(F)(F)O5)CC3)CCO2)c(C)c1` (racemic) [Example 36, methyl rac-4-[(2R,4S)-4-({[1-(2,2-difluoro-1,3-benzodioxol-5-yl)cyclopropyl]carbonyl}amino)tetrahydro-2H-pyran-2-yl]-3-methylbenzoate], for which the EC50 was determined as 570 nM and the Maximum % activity was found to be 100%.
Consider `COC(=O)c1ccc([C@H]2CC(NC(=O)C3(c4ccc5c(c4)OC(F)(F)O5)CC3)C[C@@H](C3CC3)O2)cc1` (mixture of isomers) [Example 38, methyl rac-4-[(2R,6S)-6-cyclopropyl-4-({[1-(2,2-difluoro-1,3-benzodioxol-5-yl)cyclopropyl]carbonyl}amino)tetrahydro-2H-pyran-2-yl]benzoate], for which the EC50 was 2480 nM and the Maximum % activity is given as 84%.
`COC(=O)c1ccc([C@H]2C[C@@H](NC(=O)C3(c4ccc5c(c4)OC(F)(F)O5)CC3)C[C@@H](C)O2)cc1` (racemic) [Example 39, methyl rac-4-[(2R,4S,6R)-4-({[1-(2,2-difluoro-1,3-benzodioxol-5-yl)cyclopropyl]carbonyl}amino)-6-methyltetrahydro-2H-pyran-2-yl]benzoate]: the EC50 came out at 1640 nM and the Maximum % activity is given as 90%.
For the molecule `C[C@@H]1C[C@H](NC(=O)C2(c3ccc4c(c3)OC(F)(F)O4)CC2)C[C@H](c2ccc(C(=O)O)cc2)O1` (racemic) [Example 45, rac-4-[(2R,4S,6R)-4-({[1-(2,2-difluoro-1,3-benzodioxol-5-yl)cyclopropyl]carbonyl}amino)-6-methyltetrahydro-2H-pyran-2-yl]benzoic acid], a half-maximal response (EC50) required 2000 nM and the Maximum % activity was 101%.
Regarding `COC(=O)c1ccc([C@H]2C[C@H](NC(=O)C3(c4ccc5c(c4)OC(F)(F)O5)CC3)C[C@@H](C)O2)cc1` (racemic) [Example 46, methyl rac-4-[(2R,4R,6R)-4-({[1-(2,2-difluoro-1,3-benzodioxol-5-yl)cyclopropyl]carbonyl}amino)-6-methyltetrahydro-2H-pyran-2-yl]benzoate], the EC50 amounted to 4560 nM and the Maximum % activity is recorded as 67%.
As to `COC(=O)c1ccc([C@H]2C[C@H](NC(=O)C3(c4ccc5c(c4)OC(F)(F)O5)CC3)C[C@@H](c3ccccc3)O2)cc1` (racemic) [Example 47, methyl rac-4-[(2R,4R,6S)-4-({[1-(2,2-difluoro-1,3-benzodioxol-5-yl)cyclopropyl]carbonyl}amino)-6-phenyltetrahydro-2H-pyran-2-yl]benzoate], the EC50 amounted to 6470 nM and the Maximum % activity came to 73%.
For `COC(=O)c1ccc([C@H]2C[C@@H](NC(=O)C3(c4ccc5c(c4)OC(F)(F)O5)CC3)C[C@@H](c3ccccc3)O2)cc1` (racemic) [Example 48, methyl rac-4-[(2R,4S,6S)-4-({[1-(2,2-difluoro-1,3-benzodioxol-5-yl)cyclopropyl]carbonyl}amino)-6-phenyltetrahydro-2H-pyran-2-yl]benzoate], the EC50 came out at 830 nM and the Maximum % activity was 100%.
`O=C(O)c1ccc([C@H]2C[C@H](NC(=O)C3(c4ccc5c(c4)OC(F)(F)O5)CC3)C[C@@H](c3ccccc3)O2)cc1` (racemic) [Example 49, rac-4-[(2R,4R,6S)-4-({[1-(2,2-difluoro-1,3-benzodioxol-5-yl)cyclopropyl]carbonyl}amino)-6-phenyltetrahydro-2H-pyran-2-yl]benzoic acid]: the EC50 is 3080 nM and the Maximum % activity is 77%.
For `O=C(O)c1ccc([C@H]2C[C@@H](NC(=O)C3(c4ccc5c(c4)OC(F)(F)O5)CC3)C[C@@H](c3ccccc3)O2)cc1` (racemic) [Example 50, rac-4-[(2R,4S,6S)-4-({[1-(2,2-difluoro-1,3-benzodioxol-5-yl)cyclopropyl]carbonyl}amino)-6-phenyltetrahydro-2H-pyran-2-yl]benzoic acid], the half-maximal effective concentration (EC50) was found to be 520 nM and the Maximum % activity was 92%.
With `COC(=O)c1ccc([C@H]2C[C@@H](NC(=O)C3(c4ccc5c(c4)OC(F)(F)O5)CC3)C[C@@H](c3ccc(OC)cc3)O2)cc1` (racemic) [Example 55, methyl rac-4-[(2R,4R,6S)-4-({[1-(2,2-difluoro-1,3-benzodioxol-5-yl)cyclopropyl]carbonyl}amino)-6-(4-methoxyphenyl)tetrahydro-2H-pyran-2-yl]benzoate], a half-maximal effect (EC50) was put at 860 nM and the Maximum % activity is on record as 104%.
As to `COc1ccc([C@@H]2C[C@@H](NC(=O)C3(c4ccc5c(c4)OC(F)(F)O5)CC3)C[C@H](c3ccc(C(=O)O)cc3)O2)cc1` (racemic) [Example 56, rac-4-[(2R,4S,6S)-4-({[1-(2,2-difluoro-1,3-benzodioxol-5-yl)cyclopropyl]carbonyl}amino)-6-(4-methoxyphenyl)tetrahydro-2H-pyran-2-yl]benzoic acid], it took 1900 nM to reach a half-maximal effect (EC50) and the Maximum % activity is given as 89%.
Take `COc1ccc([C@@H]2C[C@H](NC(=O)C3(c4ccc5c(c4)OC(F)(F)O5)CC3)C[C@H](c3ccc(C(=O)O)cc3)O2)cc1` (racemic) [Example 57, rac-4-[(2R,4R,6S)-4-({[1-(2,2-difluoro-1,3-benzodioxol-5-yl)cyclopropyl]carbonyl}amino)-6-(4-methoxyphenyl)tetrahydro-2H-pyran-2-yl]benzoic acid]: it took 580 nM to reach a half-maximal effect (EC50) and the Maximum % activity is reported as 90%.
On the same counts, the results for `O=C(O)c1ccc([C@H]2C[C@H](NC(=O)C3(c4ccc5c(c4)OC(F)(F)O5)CC3)C[C@@H](c3ccccc3)O2)c(F)c1` (racemic) [Example 61, rac-4-[(2R,4R,6S)-4-({[1-(2,2-difluoro-1,3-benzodioxol-5-yl)cyclopropyl]carbonyl}amino)-6-phenyltetrahydro-2H-pyran-2-yl]-3-fluorobenzoic acid] are 2540 nM and 82%.
Turning to `COC(=O)c1ccc([C@H]2C[C@@H](NC(=O)C3(c4ccc5c(c4)OC(F)(F)O5)CC3)C[C@@H](c3ccccc3)O2)c(C)c1` (racemic) [Example 62, methyl rac-4-[(2R,4S,6S)-4-({[1-(2,2-difluoro-1,3-benzodioxol-5-yl)cyclopropyl]carbonyl}amino)-6-phenyltetrahydro-2H-pyran-2-yl]-3-methylbenzoate], the midpoint of the response, the EC50, lay at 880 nM and the Maximum % activity amounted to 111%.
`COC(=O)c1ccc([C@H]2C[C@@H](NC(=O)C3(c4ccc5c(c4)OC(F)(F)O5)CC3)C[C@@H](c3ccccc3)O2)c(F)c1` (racemic) [Example 63, methyl rac-4-[(2R,4S,6S)-4-({[1-(2,2-difluoro-1,3-benzodioxol-5-yl)cyclopropyl]carbonyl}amino)-6-phenyltetrahydro-2H-pyran-2-yl]-3-fluorobenzoate]: a half-maximal response (EC50) required 860 nM and the Maximum % activity came to 105%.
